Measurements: patent US8809500B2, “Complexes comprising mammalian raptor polypeptide and mammalian mTOR polypeptide” (Whitehead Institute For Biomedical Research, priority 2002, dated 2014)

How the values were obtained:
[1] = biological target: T1, mTOR (Homo sapiens, UniProt P42345); assay: In vitro kinase assay for mTOR activity, endogenous mTOR immunoprecipitates, GST-S6K1 substrate; type: biochemical; details: for effect on mTOR kinase activity of mTOR immunoprecipitates from treated cells: cells treated for 10 minutes: 500 mM sucrose, 1 mM H2O2, 1 μm valinomycin A, 100 mM 2-deoxyglucose; for sensitivity of kinase activity of immunoprecipitates of endogenous mTOR: 20 μM inhibitor, added 10 minutes prior to kinase assay
T1 construct: the kinase activity of immunoprecipitates of endogenous mTOR depends on the presence of mTOR; endogenous in cells; host or cells: HEK293T
Description: FIG. 8A is a gel showing deprivation of amino acids, leucine, or glucose increases the stability of raptor-mTOR complex and decreases mTOR kinase activity, effects reversed by stimulation with leucine or glucose. HEK293T cells were incubated for 50 minutes in RPMI lacking amino acids (−amino acids), leucine (−leucine), or glucose (−glucose) or left untreated (control). Duplicate plates of cells deprived of leucine or glucose were stimulated for 10 minutes with 52 μg/ml leucine (−leu+leu) or 11 mM glucose (−gluc+gluc), respectively. Cells were lysed, anti-mTOR immunoprecipitates prepared, and mTOR kinase activity determined with in vitro kinase assays containing ATP-[γ-^32P] and a GST-S6K1 fusion protein (Burnett et al., PNAS 95:1432-1437 (1998)). Kinase reactions were resolved by SDS-PAGE, proteins transferred to PVDF, ^32P-incorporation into GST-S6K1 detected with autoradiography (third panel from top) and levels of mTOR (top panel) and raptor (middle panel) determined by immunoblotting. Western blot analyses of cell lysates used to prepare mTOR immunoprecipitates showing effects of nutrient conditions on the phosphorylation state and gel mobility of S6K1 in vivo (bottom two panels).
Kinase assays were performed in a volume of 10 μl at 30° C. for 20 min and contained ¼ the washed mTOR immunoprecipitates from 10 million HEK293T cells growing on a 10-cm dish, 200 ng of a GST-S6K1 fusion protein (amino acids 332-502), 1 μCi of [γ-^32P]ATP, 25 mM Hepes-KOH, pH 7.4, 50 mM KCl, 20% glycerol, 10 mM MgCl2, 4 mM MnCl2, 1 mM DTT, and 50 μM unlabeled ATP. When inhibitors were used they were added to the mTOR immunoprecipitates 10 minutes prior to the start of the kinase assay. Reactions were stopped by the addition of 5 μl of 2× sample buffer. After boiling the samples for 3 min, proteins were resolved by 8% SDS-PAGE, transferred to PVDF (poly(vinylidene difluoride)), and phosphorylated proteins visualized with autoradiography. The same blots were then used to determine the levels of mTOR and raptor by western analysis. Kinase assays using recombinant mTOR were performed as described in Burnett et al., PNAS, 95:1432-1437 (1998), except that they were washed as above with Buffer B.

[2] = biological target: T2, mTOR-raptor complex (Homo sapiens, UniProt P42345+P62942); assay: mTOR-raptor interaction: raptor co-precipitated in mTOR immunoprecipitates (western blot); type: cell-based; details: for effect on mTOR-raptor interaction (complex stability): cells treated for 10 minutes: 500 mM sucrose, 1 mM H2O2, 1 μm valinomycin A, 100 mM 2-deoxyglucose
T2 construct: endogenous in cells
Text: Unless otherwise stated, for mTOR immunoprecipitates prepared in the absence of the cross-linker, cells were lysed in ice-cold Buffer B (Buffer A in which Triton X-100 is replaced by 0.3% CHAPS) and immunoprecipitates were washed four times in Buffer B and twice in Wash Buffer 2.

[3] = tested on: HEK293T cells; assay: Leucine-induced growth experiment (cell size after leucine re-addition); details: HEK293T deprived of leucine 24 hours, then leucine 52 μg/ml; size at 6 and 10 hours; rapamycin added with leucine
Description: Cells were transfected with the indicated siRNAs and the experiment performed as described herein. […] Shown are mean±S.D. from samples for each time point.
(§1) Cells were then harvested, diluted 1:10 or 1:20 and replated in fresh media. At 1, 2, and 3 days after replating, the cells were harvested by trypsinization in 2 ml media, diluted 1:20 with counting solution (Isoflow Sheath Fluid, Coulter Corp.) and cell diameters and volumes determined using a particle size counter (Coulter Multisizer II). Cells between 11 and 21 μm in diameter were used for analysis. For the leucine-induced growth experiment, the siRNA transfected cells were diluted into fresh media one day after transfection and, at 24 hours after dilution the cells were deproved of leucine for a further 24 hours. The cells were then provided with leucine (52 μg/ml) and cell diameters, volumes, and numbers determined as above at 6 and 10 hours after the leucine supplementation.
Leucine was then added to the media and cell size measured at 6 and 10 hours after leucine addition.

[4] = tested on: HEK293T cells; assay: Cell size determination in actively growing cells (Coulter Multisizer II); details: three days after siRNA transfection or 20 nM rapamycin for 48 hours
Description: Cell diameters and volumes were determined three days after transfection using a particle size counter (Coulter Multisizer II). […] Mean±S.D. values were obtained from the indicated numbers of independent trials in which at least 10,000 cells were analyzed per trial.
as §1

[5] = tested on: S6K1; assay: In vivo phosphorylation state of S6K1 (T389) in cell lysates by western blot; type: cell-based, human
[6] = insulin 200 nM for 25 minutes, HEK293T in serum-free media for 24 hours

Molecule	effect on mTOR kinase activity of mTOR immunoprecipitates from treated cells [1]	effect on mTOR-raptor interaction (complex stability) [2]	also measured
O=CC[C@@H](O)[C@H](O)[C@H](O)CO [2-deoxyglucose]	inhibited mTOR kinase activity	stabilized the mTOR-raptor interaction	
OO [H2O2]	inhibited the mTOR kinase	stabilized the interaction	
CNCCNS(=O)(=O)c1cccc2cnccc12 [H-8]			sensitivity of kinase activity of immunoprecipitates of endogenous mTOR [1]: not
COc1cccc(-c2cc(=O)c3ccccc3o2)c1N [PD98059]			sensitivity of kinase activity of immunoprecipitates of endogenous mTOR [1]: not
CO[C@H]1C[C@@H]2CC[C@@H](C)[C@@](O)(O2)C(=O)C(=O)N2CCCC[C@H]2C(=O)O[C@H]([C@H](C)C[C@@H]2CC[C@@H](O)[C@H](OC)C2)CC(=O)[C@H](C)/C=C(\C)[C@@H](O)[C@@H](OC)C(=O)[C@H](C)C[C@H](C)/C=C/C=C/C=C/1C [rapamycin]			growth rate after leucine addition [3]: 1.02 % volume per hour; cell diameter, mean±S.D. [4]: 14.61±0.10 μm
OC[C@H]1O[C@@](CO)(O[C@H]2O[C@H](CO)[C@@H](O)[C@H](O)[C@H]2O)[C@@H](O)[C@@H]1O [sucrose]	only a modest effect	only a modest effect	effect on phosphorylation state of S6K1 ([5]; cells treated for 10 minutes with 500 mM sucrose): decreased the phosphorylation state of S6K1
CC(C)[C@@H]1NC(=O)[C@H](C)OC(=O)[C@@H](C(C)C)NC(=O)[C@@H](C(C)C)OC(=O)[C@H](C(C)C)NC(=O)[C@H](C)OC(=O)[C@@H](C(C)C)NC(=O)[C@@H](C(C)C)OC(=O)[C@H](C(C)C)NC(=O)[C@H](C)OC(=O)[C@@H](C(C)C)NC(=O)[C@@H](C(C)C)OC1=O [valinomycin]	inhibited mTOR kinase activity	stabilized the mTOR-raptor interaction	
antimycin A	inhibited mTOR kinase activity	stabilized the mTOR-raptor interaction	
insulin			effect on phosphorylation state of S6K1 [5, 6]: increased the phosphorylation state of S6K1; effect on mTOR-raptor interaction [2, 6]: did not affect the raptor-mTOR interaction
